Test results: EP2371816A1, “Aminocyclohexenone, their preparation and use as medicament against oxidative stress” (ABIOGEN PHARMA S.p.A., priority 2010, dated 2011)

Experiments:
C6 cells (rat glioma) = test: In vitro inhibition of CHP-induced oxidative stress (DCF fluorescence) in C6 cells; assay type: cell-based; settings: 500 µM CHP, compound 4, 20, 100 and 500 µM, 30 minutes at 37 °C, range given for both cell lines together
Experimental: (§1) The method used was essentially the one reported by Rüweler M. et al. ("Inhibition of peroxide-induced radical generation by plant polyphenols in C6 astroglioma cells" (2008) Toxicol in vitro 22, 1377-81), with a few minor modifications.
(§2) The cells were seeded in phenol-red free DMEM (Sigma Aldrich) into 96-well plates with 5% FBS and 20 mM HEPES at a density of 40,000 cells/well. After 48 hours, the medium was substituted by HBSS (Hanks' Balanced Salt Solution, Sigma) containing 10 µM of dihydro-2',7'-dichlorofluorescein diacetate (H2DCF-DA, Sigma Aldrich) and incubated in darkness for 30 minutes at 37 °C, in order to load the cells with fluorescent dye. H2DCF-DA was hydrolyzed enzymatically by the intracellular esterases to form non-fluorescent H2DCF, which was then rapidly oxidized to form 2',7'-dichlorofluorescein (DCF) being highly fluorescent in the presence of reactive species (RS). The intensity of DCF fluorescence is directly proportional to the amount of RS formed.
(§3) After carrying out two washes, the cells were exposed to 500 µM of CHP and various concentrations (4, 20, 100 and 500 µM) of the compounds of the invention for 30 minutes at 37 °C. Fluorescence was then measured, after cell washing, by a microplate reader at an excitation wavelength of 485 nm and an emission wavelength of 535 nm.
(§4) Six wells per plate per concentration of test composition (compound + CHP) and per control (HBSS without CHP) were measured and 12 wells were used as reference for CHP-induced stress. In addition, each 96-well plate contained 6 wells that received the highest concentration of the tested compounds without CHP, to investigate whether the compounds of the invention alone were able to induce cellular radical formation.
(§5) When using this assay, it should be borne in mind that DCF fluorescence is a generalized indicator of oxidative stress rather than of any particular reactive species, i.e. it is not a direct assay for H2O2 or other reactive species (Halliwell B, Whiteman M. (2004) "Measuring reactive species and oxidative damage in vivo and in cell culture: how should you do it and what do the results mean?" Br. J. Pharmacol. 142 231-255). Therefore, when an increase in DCF fluorescence induced by exposure of cells to CHP was measured, as was undertaken in these assays, it was not possible to deduce which reactive species was responsible. Inhibition of CHP-induced fluorescence was evaluated by means of different concentrations of the compounds of the invention and comparative compounds such as Trolox and edaravone.

[1] = test system: BAEC cells (bovine aortic endothelial); test: In vitro inhibition of CHP-induced oxidative stress (DCF fluorescence) in BAEC cells; assay type: cell-based; settings: 500 µM CHP, compound 4, 20, 100 and 500 µM, 30 minutes at 37 °C, range given for both cell lines together
Experimental: as §1, §2, §3, §4, §5

[2] = TEAC method (Trolox Equivalent Antioxidant Capacity Assay); settings: ratio of gradient to gradient of reference (trolox); 37 °C, 650 nm, pH 4.5
Description: This assay is used to measure the total antioxidant activity of pure substances, biological fluids and plant compounds and is based on the reaction of antioxidants with the cation radical ABTS^˙+ (2,2'-azinobis(3-ethylbenzothiazolin-6-sulphonate)). This cation radical is metastable and has to be generated just before the experiment by reacting ABTS with hydrogen peroxide in the presence of HRP.
This radical can be reduced, with consequent loss of absorbance, by an antioxidant whose scavenging capacity can be measured spectrophotometrically at 650 nm. The test is carried out at 37 °C and the results are obtained from a comparison with Trolox (a synthetic antioxidant and hydrophilic analogue of vitamin E).
The ABTS solution S1 was prepared as follows: • 20 mg of ABTS were added to 50 mM of citric acid buffer (40 ml) at pH=4.5 and to the resulting solution there was added an aqueous solution of HRP (4.4 mg, 400 µl) and an aqueous solution of H2O2 (10 µl of a 30% solution diluted with 16.3 ml of water).
For each of the compounds (2), (6) and (7), as synthesized above, there was prepared a 600 µM solution in water, methanol or DMSO according to its solubility, as well as a Trolox solution as reference.
Each solution was diluted to produce 6 solutions each at a concentration between 25 µM and 300 µM. From each of the diluted and divided solutions, there were withdrawn 20 µl to which 200 µl of solution S1 were then added.
The decrease in absorbance of each solution thus obtained was monitored at 650 nm until a stable value was reached (about 90 minutes).
For each set of 6 solutions and for the reference trolox solution, the absorption was given in graph form as a function of the amount of compound (nmol) in the solution. The gradient of the straight line obtained by linear interpolation was determined according to the least squares method. The TEAC value of each compound of the invention is given in the table below and is expressed as the ratio between the gradient of the resulting straight line and the gradient of the reference (trolox) straight line.

[3] = test system: cerebral oxidative stress induced in mice by doxorubicin; test: In vivo assay of cerebral oxidative stress induced in mice by doxorubicin
Experimental: The assay was carried out on compounds (1) and (3)-(6) and on edaravone (E) as comparative compound.
10 mice were used for each treatment group. For each compound 50 mg/kg were administered intraperitoneally (IP) for three consecutive days (day 0, 1 and 2); half the animals (5) also received IP 16.7 mg/kg of doxorubicin immediately after the first treatment (day 0). On the day after the last administration (day 3) the animals were killed by neck dislocation and the brains were removed, weighed and frozen in liquid nitrogen.
For the analyses of oxidative stress, 100 mg/ml of brain homogenate was prepared in Hebe buffer (pH 7.4 EDTA/HEPES^(**)) containing a mixture of enzyme inhibitors (Leupeptin, Pepstatin, Aprotinin, BHA). • ^(*) Hypotonic Extraction Buffer • ^(**) 4-2-hydroxyethyl-1-piperazinyl-ethanesulphonic acid
The evaluation parameters were: • BrW/BWi: ratio between final brain weight and initial body weight (day 0); • Prot. Hmg: total proteins in the homogenate (BCA method, i.e. bicinchoninic acid); • Prot. Ox: oxidized proteins in the Hmg by means of a colorimetric method using […] (DNPH); • GSH: reduced glutathione in the supernatant (sn) of the Hmg, obtained after precipitation with metaphosphoric acid (MPA), by means of a colorimetric method using […] (DTNB); • CAT: catalase in the Hmg by a colorimetric method using potassium dichromate; • SOD: superoxide dismutase by a colorimetric method using SOD Reagent (xanthine, EDTA, nitroblue tetrazole, Na2CO3, BSA, i.e. bovine serum albumin); • GST: glutathione S-transferase in the supernatant by a colorimetric method using chlorodinitrobenzene (CDNB) and GSH; and • GPx: glutathione peroxidase in the supernatant after addition of GSH and tert butyl hydroperoxide (t-BuOOH), heating and precipitation with MPA; followed by GSH method with DTNB.
All the parameters, with the exclusion of Brain/BWi and Prot. Hmg, were normalized for total Hmg proteins (Table 3). The D value standard deviations and the % incidence relative to V are given in italics.
The mean % effect, on all the parameters simultaneously, of the triple treatment in the healthy animals, as mean percentage variation relative to the vehicle (table 4). This value is useful as an approximate safety index of the oxidative state of the brain, i.e. the capacity of the compounds of the invention not to alter cerebral homeostasis in healthy animals.
The effect of the tested compounds on the "oxidized" animals was given as % inhibition relative to the percentage variation due to doxorubicin alone. The effect of the compounds on the oxidized animals can be expressed both as a function of the values of the vehicle (healthy, vehicle only) and as a function of the value of its own control (healthy, compound only): • Vehicle: percentage [(Compound+D)/V]x100/[(V+D)/V]x100 • Its own: percentage [(Compound+D)/Compound]x100/[(V+D)/V]x100

[4] = % variation relative to the vehicle, healthy animals, 50 mg/kg IP x3 days (D = doxorubicin alone)

Row | Compound | Inhibition of CHP-induced fluorescence (C6 cells (rat glioma)) | Inhibition of CHP-induced fluorescence [1] | TEAC [2] | Brain/BWi [3, 4] | CAT/pr [3, 4] | GPX/pr [3, 4] | GSH/pr [3, 4] | GST/pr [3, 4] | Prot. Hmg [3, 4] | Prot. Ox/pr [3, 4] | SOD/pr [3, 4] | overall inhibitory effect on the doxorubicin-induced oxidation ([3]; both with respect to the Vehicle and Its own) | Mean % variation relative to the vehicle ([3]; healthy animals, 50 mg/kg IP days 0, 1 and 2, mean over all parameters, approximate safety index (D = doxorubicin alone), 50 mg/kg)
1 | Cc1c(C)c2c(c(C)c1O)CCC(C)(C(=O)O)O2 (stereo not drawn) [Trolox, reference compound] | 10-50% | 10-50% | – | – | – | – | – | – | – | – | – | – | –
2 | CC1=NN(c2ccccc2)C(=O)C1 [edaravone, reference compound] | 10-50% | 10-50% | 0.9 | 2.7% | -5.0% | -6.7% | -5.5% | -3.1% | 3.7% | -2.3% | -2.2% | about 75% | -2.7%
